In US4317775A (Hoffmann-La Roche Inc., priority 1980, dated 1982):
Counter-ions that a name gives are not always drawn.

Tests used:
Streptococcus pyogenes = test: In vitro activity (MIC/MBC), Streptococcus pyogenes; format: cell-based; conditions: for MBC: read-out: Minimum Inhibitory Concentration (MBC); for MIC: read-out: Minimum Inhibitory Concentration (MIC)
Description: (§1) MIC is the Minimum Inhibitory Concentration. MBC is the Minimum Bactericidal Concentration.
(§2) Results reported in Table 3(a) are reported as MIC defined above and results reported in Table 3(b) are reported as MBC defined above.

Staphylococcus aureus = test: In vitro activity (MIC/MBC), Staphylococcus aureus; format: cell-based; conditions: for MBC: read-out: Minimum Inhibitory Concentration (MBC); for MIC: read-out: Minimum Inhibitory Concentration (MIC)
Description: as §1, §2

Escherichia coli = test: In vitro activity (MIC/MBC), Escherichia coli; format: cell-based; conditions: for MBC: read-out: Minimum Inhibitory Concentration (MBC); for MIC: read-out: Minimum Inhibitory Concentration (MIC)
Description: as §1, §2

Klebsiella pneumoniae = test: In vitro activity (MIC/MBC), Klebsiella pneumoniae; format: cell-based; conditions: for MBC: read-out: Minimum Inhibitory Concentration (MBC); for MIC: read-out: Minimum Inhibitory Concentration (MIC)
Description: as §1, §2

Proteus vulgari = test: In vitro activity (MIC/MBC), Proteus vulgari; format: cell-based
Description: as §1, §2

S. pyogenes = test: In vivo activity against systemic infection in mice, S. pyogenes
Description: (§3) The PD50 is the protective dose for 50% of the animals treated against a challenge organism.

S. pneumoniae I = test: In vivo activity against systemic infection in mice, S. pneumoniae I
Description: as §3

E. coli = test: In vivo activity against systemic infection in mice, E. coli; conditions: in mg/kg
Description: as §3

K. pneumoniae = test: In vivo activity against systemic infection in mice, K. pneumoniae; conditions: in mg/kg
Description: as §3

S. pneumoniae II = test: In vivo activity against systemic infection in mice, S. pneumoniae II
Description: as §3

P. mirabilis = test: In vivo activity against systemic infection in mice, P. mirabilis; conditions: in mg/kg
Description: as §3

P. aeruginosa = test: In vivo activity against systemic infection in mice, P. aeruginosa
Description: as §3

in vivo = conditions: mouse
[1] = system: Streptococcus pneumoniae I; test: In vitro activity (MIC/MBC), Streptococcus pneumoniae I; format: cell-based; conditions: for MBC: read-out: Minimum Inhibitory Concentration (MBC); for MIC: read-out: Minimum Inhibitory Concentration (MIC)
Description: as §1, §2

[2] = system: Salmonella schottmuelleri; test: In vitro activity (MIC/MBC), Salmonella schottmuelleri; format: cell-based; conditions: for MBC: Salmonella schottmuelleri, read-out: Minimum Inhibitory Concentration (MBC); for MIC: Salmonella, read-out: Minimum Inhibitory Concentration (MIC)
Description: as §1, §2

Salmonella typhosa = test: In vitro activity (MIC/MBC), Salmonella typhosa; format: cell-based; conditions: Salmonella enterica; for MBC: read-out: Minimum Inhibitory Concentration (MBC), MBC, Salmonella typhosa; for MIC: read-out: Minimum Inhibitory Concentration (MIC), Salmonella typhosa
Description: as §1, §2

S. schottmuelleri = test: In vivo activity against systemic infection in mice, S. schottmuelleri
Description: as §3

S. typhosa = test: In vivo activity against systemic infection in mice, S. typhosa
Description: as §3

[3] = Stability in aqueous solution (percent retention); format: physicochemical; conditions: for Percent Retention: 6 hrs + 5° C., 192 hrs
Protocol: The stability of the compound was determined in 0.9% saline solution, 5% aqueous dextrose solution and in water, both at room temperature and/or 5° C.

S. aureus = test: In vivo activity against systemic infection in mice, S. aureus; conditions: subcutaneous, in mg/kg
Description: as §3

[4] = 5% dextrose in water, 2.10 mg/ml, RT
[5] = 5% dextrose in water, 2.20 mg/ml, 5° C.
[6] = 5% dextrose in water, 30 mg/ml, RT
[7] = 5% dextrose in water, 33 mg/ml, 5° C.
[8] = aqueous concentrate, 155 mg/ml, 5° C.

CC1(C)S[C@@H]2[C@H](NC(=O)[C@H](NC3CCCS3)c3ccc(O)cc3)C(=O)N2[C@H]1C(=O)O (relative stereo) [Compound III, {2S-[2α,5α,6β(S*)]}-6-{[tetrahydro-2-thienylamino-(4-hydroxyphenyl)acetyl]amino}-3,3-dimethyl-7-oxo-4-thia-1-azabicyclo[3.2.0]heptane-2-carboxylic acid sodium salt]
MBC (Streptococcus pyogenes): > 8.88 µg/mL | MIC (Streptococcus pyogenes): 0.554 µg/mL | MBC (Staphylococcus aureus): 0.138 µg/mL | MIC (Staphylococcus aureus): 0.138 µg/mL | MBC (Escherichia coli): 4.44 µg/mL | MIC (Escherichia coli): 4.44 µg/mL | MBC (Klebsiella pneumoniae): 1.11 µg/mL | MIC (Klebsiella pneumoniae): 0.554 µg/mL | MBC (Proteus vulgari; MBC, read-out: Minimum Inhibitory Concentration (MBC)): 0.554 µg/mL | MIC (Proteus vulgari; read-out: Minimum Inhibitory Concentration (MIC)): 0.554 µg/mL | PD50 (S. pyogenes; oral): 6.3 mg/kg | PD50 (S. pyogenes; subcutaneous): 4.1 mg/kg | PD50 (S. pneumoniae I; oral): 4.7 mg/kg | PD50 (S. pneumoniae I; subcutaneous): 2.5 mg/kg | PD50 (E. coli; oral): 18.7 | PD50 (E. coli; subcutaneous): 19.4 | PD50 (K. pneumoniae; oral): 15.5 | PD50 (K. pneumoniae; subcutaneous): 5.3 | PD50 (S. pneumoniae II; oral): 3.2 mg/kg | PD50 (S. pneumoniae II; subcutaneous): 3.2 mg/kg | PD50 (P. mirabilis; oral): 3.8 | PD50 (P. mirabilis; subcutaneous): 2.5 | PD50 (P. aeruginosa; oral): > 142 mg/kg | PD50 (P. aeruginosa; subcutaneous): > 142 mg/kg | LD50 (in vivo; ip): 668 mg/kg | LD50 (in vivo; po): 558 mg/kg | LD50 (in vivo; sc): 598 mg/kg

CC1(C)S[C@@H]2[C@H](NC(=O)[C@H](NC3CCCO3)c3ccc(O)cc3)C(=O)N2[C@H]1C(=O)O (relative stereo) [Compound I, {2S-[2α,5α,6β(S*)]}-6-{[2-tetrahydrofuranylamino(4-hydroxyphenyl)acetyl]amino}-3,3-dimethyl-7-oxo-4-thia-1-azabicyclo[3.2.0]heptane-2-carboxylic acid sodium salt]
MBC (Streptococcus pyogenes): 2.84 µg/mL | MIC (Streptococcus pyogenes): 0.022 µg/mL | MBC [1]: 0.022 µg/mL | MIC [1]: 0.022 µg/mL | MBC (Staphylococcus aureus): 0.177 µg/mL | MIC (Staphylococcus aureus): 0.177 µg/mL | MBC (Escherichia coli): 5.69 µg/mL | MIC (Escherichia coli): 5.69 µg/mL | MBC (Klebsiella pneumoniae): 0.71 µg/mL | MIC (Klebsiella pneumoniae): 0.71 µg/mL | MBC [2]: 1.42 µg/mL | MIC [2]: 0.71 µg/mL | MBC (Salmonella typhosa): 0.35 µg/mL | MIC (Salmonella typhosa): 0.35 µg/mL | PD50 (S. pyogenes; oral): 3.8 mg/kg | PD50 (S. pyogenes; subcutaneous): 7 mg/kg | PD50 (S. pneumoniae I; oral): 1.5 mg/kg | PD50 (S. pneumoniae I; subcutaneous): 0.7 mg/kg | PD50 (E. coli; oral): 23.8 | PD50 (E. coli; subcutaneous): 8.2 | PD50 (K. pneumoniae; oral): 9.9 | PD50 (K. pneumoniae; subcutaneous): 3.8 | PD50 (S. schottmuelleri; oral): 5.4 mg/kg | PD50 (S. schottmuelleri; subcutaneous): 2.4 mg/kg | PD50 (S. typhosa; oral): 8 mg/kg | PD50 (S. typhosa; subcutaneous): 7.3 mg/kg | LD50 (in vivo; ip): 3220 mg/kg | LD50 (in vivo; po): 9100 mg/kg | LD50 (in vivo; sc): 4550 mg/kg

CC1(C)S[C@@H]2[C@H](NC(=O)[C@@H](c3ccc(O)cc3)N(C3CCCCO3)C3CCCCO3)C(=O)N2[C@H]1C(=O)O (relative stereo) [Compound II, {2S-[2α,5α,6β(S*)]}-6-[bis(tetrahydro-2-H-pyran-2-yl)amino]{[(4-hydroxyphenyl)acetyl]amino}-3,3-dimethyl-7-oxo-4-thia-1-azabicyclo[3.2.0]heptane3-carboxylic acid sodium salt]
remaining at 24 h ([3]; 0.9% saline, 2.20 mg/ml, 5° C.): 100% | remaining at 48 h ([3]; 0.9% saline, 2.20 mg/ml, 5° C.): 100% | remaining at 6 h ([3]; 0.9% saline, 2.25 mg/ml, RT): 96% | Percent Retention ([3]; 0.9% saline, 2.25 mg/ml, RT): 98% | remaining at 6 h ([3]; 0.9% saline, 2.30 mg/ml, RT): 96% | remaining at 24 h ([3]; 0.9% saline, 2.30 mg/ml, RT): 91% | remaining at 48 h ([3]; 0.9% saline, 2.30 mg/ml, RT): 84% | remaining at 6 h ([3]; 0.9% saline, 29.1 mg/ml, RT): 97% | time for which 90% of potency was maintained ([3]; 0.9% saline, 0.2% solution, 5° C.): ≥ 192 h | time for which 90% of potency was maintained ([3]; 0.9% saline, 0.2% solution, room temperature): about 24 hours | time for which 90% of potency was maintained ([3]; 0.9% saline, 3% solution, 5° C.): ≥ 192 h | time for which 90% of potency was maintained ([3]; 0.9% saline, 3% solution, room temperature): less than 24 hours | remaining at 24 h ([3]; 0.9% saline, 31. mg/ml, 5° C.): 100% | remaining at 48 h ([3]; 0.9% saline, 31. mg/ml, 5° C.): 100% | remaining at 6 h ([3]; 0.9% saline, 34. mg/ml, RT): 97% | remaining at 24 h ([3]; 0.9% saline, 34. mg/ml, RT): 85% | remaining at 48 h ([3]; 0.9% saline, 34. mg/ml, RT): 76% | Percent Retention ([3]; 5% Dextrose in Water, 2.10 mg/ml, RT): 73% | Percent Retention ([3]; 5% Dextrose in Water, 31 mg/ml, RT): 81% | remaining at 6 h [3, 4]: 95% | remaining at 24 h [3, 4]: 89% | remaining at 48 h [3, 4]: 71% | remaining at 24 h [3, 5]: 95% | remaining at 48 h [3, 5]: 91% | remaining at 6 h [3, 6]: 96% | remaining at 24 h [3, 6]: 92% | remaining at 48 h [3, 6]: 83% | remaining at 6 h ([3]; 5% dextrose in water, 31 mg/ml, RT): 100% | remaining at 24 h [3, 7]: 94% | remaining at 48 h [3, 7]: 84% | time for which 90% of potency was maintained ([3]; 5% dextrose in water, 0.2% solution, 5° C.): 48 h | time for which 90% of potency was maintained ([3]; 5% dextrose in water, 0.2% solution, room temperature): about 24 hours | time for which 90% of potency was maintained ([3]; 5% dextrose in water, 3% solution, 5° C.): less than 48 hours | time for which 90% of potency was maintained ([3]; 5% dextrose in water, 3% solution, room temperature): about 24 hours | remaining at 24 h [3, 8]: 100% | remaining at 48 h [3, 8]: 100% | MBC (Streptococcus pyogenes): 6.31 µg/mL | MIC (Streptococcus pyogenes): 0.39 µg/mL | MBC [1]: 0.049 µg/mL | MIC [1]: 0.049 µg/mL | MBC (Staphylococcus aureus): 0.098 µg/mL | MIC (Staphylococcus aureus): 0.098 µg/mL | MBC (Escherichia coli): 3.94 µg/mL | MIC (Escherichia coli): 3.94 µg/mL | MBC (Klebsiella pneumoniae): 0.98 µg/mL | MIC (Klebsiella pneumoniae): 0.09 µg/mL | MBC [2]: 0.98 µg/mL | MIC [2]: 0.98 µg/mL | MBC (Salmonella typhosa): 0.12 µg/mL | MIC (Salmonella typhosa): 0.12 µg/mL | PD50 (S. pyogenes; oral): 1.9 mg/kg | PD50 (S. pyogenes; subcutaneous): 3.4 mg/kg | PD50 (S. pneumoniae I; oral): 0.7 mg/kg | PD50 (S. pneumoniae I; subcutaneous): 0.7 mg/kg | PD50 (E. coli; oral): 23 | PD50 (E. coli; subcutaneous): 18 | PD50 (K. pneumoniae; oral): 8.6 | PD50 (K. pneumoniae; subcutaneous): 5.7 | PD50 (S. schottmuelleri; oral): 1.9 mg/kg | PD50 (S. schottmuelleri; subcutaneous): 5.7 mg/kg | PD50 (S. typhosa; oral): 3.6 mg/kg | PD50 (S. typhosa; subcutaneous): 1.4 mg/kg | PD50 (S. aureus): 0.5 | LD50 (in vivo; ip): 6310 mg/kg | LD50 (in vivo; po): > 6310 mg/kg | LD50 (in vivo; sc): 4460 mg/kg
